Tests used:
[1] = tested on: SOD1 G93A mouse model of ALS; experiment: Rotarod test (motor coordination), time to failure of 180 s; type: in vivo
Excerpt: From a patient's point of view overall survival is not the only parameter of a successful therapy. Many recent therapeutic studies in humans rather evaluate an increased time with improved quality of life. An improved motor function could be one parameter that is relevant for the quality of daily life and therefore the inventors chose two different tests to monitor motor function in the present animal model. The rotarod test evaluates fine motor coordination and is a very sensitive test for the ability to move on an unstable underground. Evaluating motor coordination by subjecting the animals to the rotarod test, the presymptomatic female treatment group failed later in the task to reach a total running time of 180 s (122.5 days) in comparison to the vehicle-treated group (114.2 days).

[2] = tested on: spinal cord motoneurons of SOD1 G93A mice; experiment: ChAT positive motoneurons in lumbar spinal cord sections; type: in vivo, mouse; settings: for ChAT cell numbers per lumbar spinal cord section / motoneuron count: time of death; for ChAT cell numbers per lumbar spinal cord section: vehicle 6.1±0.95
Procedure: After deep anaesthesia, mice were transcardially perfused with PBS solution followed by 4% paraformaldehyde. Spinal cords, sciatic nerves and gastrocnemius muscles were removed. Spinal cords and gastrocnemius muscles were then postfixed for 2 h in 4% paraformaldehyde. Thereafter, the tissue was dehydrated in 30% sucrose overnight and kept at -20° C. until further processing. Coronal sections of the lumbar spinal cord (L3-L6) (20 μm) and horizontal sections of the tibial muscle (35 μm) were prepared using a Leica Kryostat and collected on gelatine-coated glass slides. Spinal cord sections selected for immunohistochemical processing were first rehydrated. Then antigen-retrieval was performed for 4 h in TBS at 60° C. for later GFAP or Iba1 labeling and for 30 min in sodium citrate (pH 9.0) at 80° C. for later ChAT labeling. […] The primary antibodies (anti-ChAT 1:100, AB144 P, Millipore; anti-GFAP 1:200, DAKO; anti-Iba1 1:500, WAKO, Osaka, Japan) were applied at 4° C. for one night for GFAP and for three nights for ChAT. The secondary antibodies (Cy3 anti-goat or Cy2/Dylight anti rabbit; both Dianova) were applied on separate sections 1:300 for 1 h at room temperature. […] In order to quantify motoneuron numbers in coronal cryosections from the lumbar spinal (L3-L6) cord first the area of the ventral horn was defined according to the criteria from Kong et al. (Kong and Xu 1998). […] At least five sections per mouse spinal cord that were 100 μm apart over a length of at least 500 μm isolated from the lumbar spinal cord were counted. In the d50 treatment group analyzed at death, a total of 20 mice was counted from the vehicle (3 male, 3 female), Fas30 (3 male, 3 female), Fas100 (3 male, 3 female) and wildtype (1 male, 1 female) group. In the […] treatment group analyzed at death, a total of 20 mice was counted from the vehicle (3 male, 3 female), Fas30 (3 male, 3 female), and Fas100 (3 male, 3 female) and wildtype (1 male, 1 female) group. In the d50 treatment group analyzed at […], a total of 20 mice was counted from the vehicle (3 male, 3 female), Fas30 (3 male, 3 female), Fas100 (3 male, 3 female) and wildtype (1 male, 1 female) group.

[3] = tested on: spinal cord astroglia of SOD1 G93A mice; experiment: GFAP positive astrocytes in ventral horn of lumbar spinal cord (astrogliosis); type: in vivo, mouse; settings: for numbers of GFAP positive astroglia: time of death, presymptomatic
Procedure: After deep anaesthesia, mice were transcardially perfused with PBS solution followed by 4% paraformaldehyde. Spinal cords, sciatic nerves and gastrocnemius muscles were removed. Spinal cords and gastrocnemius muscles were then postfixed for 2 h in 4% paraformaldehyde. Thereafter, the tissue was dehydrated in 30% sucrose overnight and kept at −20° C. until further processing. Coronal sections of the lumbar spinal cord (L3-L6) (20 μm) and horizontal sections of the tibial muscle (35 μm) were prepared using a Leica Kryostat and collected on gelatine-coated glass slides.
(§1) Spinal cord sections selected for immunohistochemical processing were first rehydrated. Then antigen-retrieval was performed for 4 h in TBS at 60° C. for later GFAP or Iba1 labeling and for 30 min in sodium citrate (pH 9.0) at 80° C. for later ChAT labeling. After washing for one time in PBS the sections were incubated at room temperature either in PBS and 10% of normal goat serum for later GFAP labeling or in PBS and 5% normal donkey serum for later ChAT labeling to block unspecific binding. The primary antibodies (anti-ChAT 1:100, AB144 P, Millipore; anti-GFAP 1:200, DAKO; anti-Iba1 1:500, WAKO, Osaka, Japan) were applied at 4° C. for one night for GFAP and for three nights for ChAT. The secondary antibodies (Cy3 anti-goat or Cy2/Dylight anti rabbit; both Dianova) were applied on separate sections 1:300 for 1 h at room temperature. Then a nuclear counter-stain with DAPI (4,6-diamidino-2-phenylindole) (Sigma-Aldrich) was performed before mounting in Moviol (Hoechst, Frankfurt, Germany).
(§2) Astrogliosis and microgliosis were evaluated by the quantification of GFAP or Iba1 positive cells in the ventral horn of lumbar spinal cord sections, respectively. Again, the area of the ventral horn was defined and GFAP or Iba1 positive cells were manually counted. In the d50 treatment group analyzed at death, a total of 20 mice was counted from the vehicle (3 male, 3 female), Fas30 (3 male, 3 female), Fas100 (3 male, 3 female) and wildtype (1 male, 1 female) group. In the d50 treatment group analyzed at d100, a total of 20 mice was counted from the vehicle (3 male, 3 female), Fas30 (3 male, 3 female), Fas100 (3 male, 3 female) and wildtype (1 male, 1 female) group.
Reactive astrogliosis represents another parameter in the evaluation of histologic manifestation of ALS disease. In human ALS patients, the clinical progression of this neurodegenerative disease seems to be associated with changes in astrocytic cell infiltration in the spinal cord. Therefore, the inventors evaluated the extent of astrogliosis in the lumbar spinal cord by counting the number of GFAP positive astroglial cells in the ventral horn and normalized values to area (FIG. 12).

[4] = tested on: spinal cord microglia of SOD1 G93A mice; experiment: Iba1 immunopositive microglia count in spinal cord anterior horn; type: in vivo, mouse
Procedure: as §1, §2
The extent of microglial cell dissemination in the lumbar spinal cord was evaluated with a marker of activated microglia (Iba1) as described above under the heading “Quantitative evaluation of spinal cord motoneurons and astroglia, sciatic nerve axons and NMJ”.

[5] = day 100, female, presymptomatic Fas30 vs transgenic vehicle

Structure (SMILES): O=S(=O)(c1cccc2cnccc12)N1CCCNCC1 [Fasudil, 1-(5-isoquinolinesulfonyl)homopiperazine]
- rotarod performance ([1]; male, presymptomatic Fas30): slight non-significant trend to improved performance
- time to failure to reach 180 s rotarod running time ([1]; presymptomatic female treatment group, vehicle 114.2 days): 122.5 days
- rotarod performance ([1]; symptomatic treatment): not able to improve rotarod performances
- motoneuron numbers differentiated by cell body size ([2]; day 100, female, Fas30 vs transgenic vehicle, trend not significant): more motoneurons in all size groups
- cumulative cell body size per anterior horn section ([2]; day 100, female, Fasudil vs vehicle): defined trend to be larger
- numbers of ChAT positive motoneurons [2, 5]: strong trend of elevated numbers of motoneurons
- ChAT cell numbers per lumbar spinal cord section ([2]; female, presymptomatic F100 (high dose)): 7.3±1.00
- ChAT cell numbers per lumbar spinal cord section ([2]; female, presymptomatic Fas30): 8.6±0.36
- motoneuron count ([2]; female, symptomatic treatment groups): did not differ
- motoneuron count ([2]; male, presymptomatic Fas30 or Fas100): did not profit
- motoneuron count ([2]; male, symptomatic Fas30 vs vehicle): higher motoneuron numbers
- GFAP cell number [3, 5]: significantly reduced
- numbers of GFAP positive astroglia ([3]; Fas30 female, vehicle female 28.91±4.7): 31.6±5.9 per 0.2 mm^2
- numbers of GFAP positive astroglia ([3]; Fas30 male, vehicle male 31.3±4.7): 38.2±4.4 per 0.2 mm^2
- numbers of GFAP positive astroglia ([3]; Fas100 female, vehicle female 28.91±4.7): 27.9±4.0 per 0.2 mm^2
- numbers of GFAP positive astroglia ([3]; Fas100 male, vehicle male 31.3±4.7): 29.24±4.5 per 0.2 mm^2
- Iba1 immunopositive microglial cells ([4]; d100, Fasudil 30, vehicle SOD1G93A 27.8±4.7, wildtype 14.0±2.8): 39.5±3.9 cells/0.5 mm^2
- Iba1 immunopositive microglial cells ([4]; disease end-stage, Fas30, vehicle 43.2±4.2): 48.8±3.3 cells/0.5 mm^2
- Iba1 immunopositive microglial cells ([4]; disease end-stage, Fas100, vehicle 43.2±4.2): 50.2±4.7 cells/0.5 mm^2
